We go through 43 compounds from the Deep4Chem optical property database.

Several values for one entry are separate records, joined by “and”; a condition that tells them apart may be missing. Identical values can stand only once.

A short description of this series: solvent given as SMILES.

`COc1ccc(CCNC(=O)c2sc(-c3ccc(-c4cc(-c5ccc(C(C)(C)C)cc5)c(C(=O)NCCc5ccc(OC)c(OC)c5)s4)s3)cc2-c2ccc(C(C)(C)C)cc2)cc1OC` showed an emission maximum (in ClCCl) of 449 nm.
With `CCN(CC)c1ccc2cc(-c3nc4cc(C(=O)Nc5ccccc5)ccc4o3)c(=O)oc2c1`, the emission maximum (in ClCCl) stood at 495 nm.
Regarding `c1ccc(-c2nc(-c3ccccc3)nc(-c3ccc(-n4c5ccc(-c6ccc7sc8ccccc8c7c6)cc5c5cc(-c6ccc7sc8ccccc8c7c6)ccc54)cc3)n2)cc1`, the emission maximum is 473 nm (in CCOC(C)=O), 531 nm (in CN(C)C=O) and 437 nm (in Cc1ccccc1).
`CCCC(=O)c1c2c(c(C(=O)CCC)c3c1OC(CC(=O)OC)(C(=O)O)O3)OCO2`: the emission maximum reads like this: (in CC#N) 542 nm; (in CCO) 603 nm; (in CO) 614 nm; (in ClCCl) 530 nm; (in O) 637 nm.
With `Cc1ccc(C#Cc2ccc3ccc4cccc5ccc2c3c45)cc1`, the emission maximum turned out to be 387 nm (in CCCCCC), 391 nm (in CCO), 391 nm (in CCOC(C)=O) and 395 nm (in ClCCl).
`CC(C)(C)c1ccc(C2=c3sc4ccccc4c3=[N+]3C2=Nc2c(-c4ccc(C(C)(C)C)cc4)c4sc5ccccc5c4n2[B-]3(F)F)cc1`: the emission maximum is, setting by setting: (in C1CCOC1) 800 nm; (in Cc1ccccc1) 796 nm; (in ClC(Cl)Cl) 794 nm.
In the case of `CSc1sc(C(N)=O)c2nnn(C)c(=O)c12`, the emission maximum was found to be 496 nm (in C1CCOC1); 505 nm (in CC#N); 519 nm (in CCO); 514 nm (in CN(C)C=O); 521 nm (in CO); 527 nm (in CS(C)=O).
Consider `c1ccc(N(c2ccccc2)c2c3ccccc3c(N(c3ccccc3)c3ccccc3)c3ccccc23)cc1`, for which the emission maximum (in Cc1ccccc1) amounted to 510 nm.
In turn, `Cc1ccsc1-c1ccc(-c2ccc(-c3sccc3C)s2)s1` returned an emission maximum (in CCCCCCCCCCCCCC) of 473 nm.
For `C(#Cc1ccccc1)C(C#Cc1ccccc1)=Cc1ccc(C=C(C#Cc2ccccc2)C#Cc2ccccc2)s1`, the emission maximum (in ClC(Cl)Cl) stood at 528 nm.
For the compound `c1ccc2c(c1)Cc1c-2sc2c1Cc1ccccc1-2`, the emission maximum (in C1CCOC1) worked out at 385 nm.
The compound `CCC1=C(C)C2=C(C)c3c(C)c(CC)c(C)n3[B-](F)(F)[N+]2=C1C` came in with an emission maximum (in C1CCCCC1) of 537.2 nm; an emission maximum (in C1CCOC1) of 534 nm; an emission maximum (in C1COCCO1) of 533.2 nm; an emission maximum (in CC#N) of 530.4 nm; an emission maximum (in CC(C)=O) of 532 nm; an emission maximum (in CC(C)O) of 534 nm. This compound yielded an emission maximum (in CCC(C)C) of 534.4 nm; an emission maximum (in CCCCCC) of 533.6 nm; an emission maximum (in CCCCCCCC) of 535.2 nm; an emission maximum (in CCCCCCCCCCO) of 534.8 nm; an emission maximum (in CCCCCCCCO) of 534.4 nm; an emission maximum (in CCCCCCO) of 534.8 nm. In addition, the emission maximum was 534.4 nm (in CCCCO); 534 nm (in CCCO); 532.4 nm (in CCO); 531.6 nm (in CCOC(C)=O); 532.8 nm (in CCOCC); 533.2 nm (in CN1CCCC1=O). Moreover, the emission maximum was determined as 532.8 nm (in CN(C)C=O); 531.6 nm (in CO); 536.4 nm (in Cc1ccccc1); 534 nm (in ClCCl); 535.2 nm (in OCC(F)(F)F); 536.4 nm (in OCCO). The emission maximum is, setting by setting: (in OCCOc1ccccc1) 536.8 nm; (in c1ccccc1) 536.4 nm.
In turn, `C(=C\c1c2ccccc2cc2ccccc12)/c1ccc2ccccc2c1` had an emission maximum (in CC1CCCCC1) of 488 nm and an emission maximum (in CC#N) of 490 nm.
With `COc1ccc(C2=C(c3ccc(OC)cc3)C(c3ccccc3)=[N+]3C2=Nc2c(-c4ccc(OC)cc4)c(-c4ccc(OC)cc4)c(-c4ccccc4)n2[B-]3(F)F)cc1`, the emission maximum (in Cc1ccccc1) is 750 nm.
The compound `N#Cc1ccc(C=C(c2ccccc2)c2ccccc2)cc1` yielded an emission maximum (in C1CCOC1) of 390 nm.
Take `C[Si](C)(C)c1ccc(C#N)c2ccccc12`: the emission maximum (in C1CCCCC1) is on record as 333 nm.
With `COOCc1noc(-c2ccccc2)c1Br`, the emission maximum (in C1CCCCC1) came to 345 nm.
In turn, `F[B-]1(F)n2c(cc3c2-c2ccccc2CC3)C(c2ccc(I)cc2)=C2C=C3CCc4ccccc4C3=[N+]21` returned an emission maximum (in ClC(Cl)Cl) of 647 nm.
Take `CCC1=C(C)C2=Cc3c4ccccc4c4n3[B-](c3ccc(OC)cc3)(Oc3ccccc3-4)[N+]2=C1C` (stereo not drawn): the emission maximum is reported as 634 nm (in CC#N), 635 nm (in CCCCCC), 641 nm (in Cc1ccccc1) and 639 nm (in ClCCl).
Compound `C[Si]1(C)O[Si](C)(C)c2cc3cc4cc5c(cc4cc3cc21)C(=O)c1cc2cc3cc4c(cc3cc2cc1C5=O)[Si](C)(C)O[Si]4(C)C` returned an emission maximum (in ClC(Cl)Cl) of 518 nm.
For the compound `c1ccc(-c2nc(-c3ccc(-c4nc(-c5ccccc5)c(-c5ccccc5)[nH]4)s3)[nH]c2-c2ccccc2)cc1`, the emission maximum (in C1CCOC1) was found to be 457 nm; the emission maximum (in CC#N) is 458 nm; the emission maximum (in CC(=O)O) is 503 nm and 502.99 nm; the emission maximum (in CC(C)=O) was 460 nm and 458 nm; the emission maximum (in CCOC(C)=O) is recorded as 457 nm; the emission maximum (in CCOCC) was 454 nm and 454.01 nm. The emission maximum was 457 nm (in CO); 485 nm and 484.99 nm (in ClC(Cl)Cl).
Under “in ClCCl”, `CCCCn1c(-c2ccc(-c3nnc(-c4ccc(-c5nc(-c6ccccc6)c(-c6ccccc6)n5CCCC)cc4)o3)cc2)nc(-c2ccccc2)c1-c1ccccc1` had an emission maximum of 445 nm.
The same measure, in the same setting: as for `CN(/N=C1\N=C(N)C2(CCCC2)c2ccccc21)c1ccccc1`, the figure is 471 nm.
Still for that read-out and setting: as for `CCOC(=O)c1c(-c2c(Cl)c3cc(C)ccc3oc2=O)nn(-c2cccc(C)c2)c1C(=O)OCC`, the figure is 418 nm.
Under “in CO”, `COc1ccc(OC)c(C(C)=O)c1` yielded an emission maximum of 449 nm.
Turning to `CCn1c2ccccc2c2cc(/C=C/c3cc(/C=C/c4ccc5c(c4)c4ccccc4n5CC)ncn3)ccc21`, the emission maximum is, setting by setting: (in C1CCOC1) 463 nm; (in CCOC(C)=O) 460 nm; (in CN(C)C=O) 500 nm; (in Cc1ccccc1) 440 nm; (in ClCCl) 492 nm.
`CCCCOc1ccc(-c2cc3c(o2)c(-c2ccc(OCCCC)cc2)c2n3[B-](F)(F)[N+]3=Cc4c(-c5ccc(OCCCC)cc5)c5oc(-c6ccc(OCCCC)cc6)cc5n4[B-](F)(F)[N+]3=C2)cc1` yielded an emission maximum (in C1CCOC1) of 659 nm; an emission maximum (in CN(C)C=O) of 667 nm; an emission maximum (in CS(C)=O) of 672 nm; an emission maximum (in Cc1ccccc1) of 660 nm; an emission maximum (in ClC(Cl)Cl) of 660 nm; an emission maximum (in ClCCl) of 661 nm.
On to `COc1ccc2c(c1)c1ccc3cccc4c5cccc6oc(=O)c2c(c65)c1c34`, for which the emission maximum (in C1CCOC1) is 440 nm.
Consider `COc1ccc(-c2nc(-c3ccc(C#N)cc3)[nH]c2-c2ccc(OC)cc2)cc1`, for which the emission maximum (in CO) worked out at 473 nm.
`CN(C)c1ccc(C=C/C=C/C=C/c2ccc(C#N)cc2)cc1`: the emission maximum is, setting by setting: (in C1CCOC1) 609 nm; (in CC#N) 658 nm; (in CCCC#N) 640 nm; (in CCCCCC) 467 nm; (in CCCCOCCCC) 541 nm; (in CCO) 637 nm. The compound also yielded an emission maximum (in CCOCC) of 567 nm.
Take `Cc1ccc2nc3c(=O)[nH]c(=O)[nH]c3nc2c1`: the emission maximum is, setting by setting: (in CC#N) 426 nm; (in ClCCCl) 425 nm.
Take `N#CC(C#N)=Cc1ccc(-c2ccc(N(c3ccccc3)c3ccccc3)cc2)o1`: the emission maximum (in ClC(Cl)Cl) stood at 618 nm.
In the case of `c1ccc2c(c1)Sc1ccccc1S2`, where the note is “in CC1CCCCC1”, the emission maximum worked out at 431 nm.
With `COc1ccc(C2=CC(c3ccc(OC)cc3)=[O+][B-](C(C)=O)(C(C)=O)O2)cc1`, the emission maximum is 435 nm (in CC#N) and 420 nm (in ClC(Cl)(Cl)Cl).
Compound `CC1(C)CC(=O)c2ccccc2N1` gave an emission maximum (in CC#N) of 439 nm and an emission maximum (in CCO) of 483 nm.
`COC(=O)c1cc(=O)n(C)c2cc(-c3ccccc3OC)sc12`: the emission maximum is recorded as 468 nm (in CC#N) and 469 nm (in ClCCl).
Turning to `N#CC(C#N)=Cc1cn(-c2ccccc2)nc1-c1ccccc1`, the emission maximum is, setting by setting: (in C1CCOC1) 427 nm; (in C1COCCO1) 426 nm; (in CCO) 426 nm; (in CCOC(C)=O) 427 nm; (in CN(C)C=O) 438 nm; (in CO) 426 nm. Besides, the emission maximum by setting is: (in CS(C)=O) 443 nm; (in Cc1ccccc1) 430 nm; (in ClC(Cl)Cl) 432 nm; (in ClCCl) 430 nm.
Where the note is “in ClCCl”, `COc1ccc(/C=C/C2=C3CCc4ccccc4C3=[O+][B-](F)(F)O2)cc1` showed an emission maximum of 515 nm.
Take `NC(=O)C1=CN([C@H]2C[C@H](O)[C@@H](COP(=O)([O-])OP(=O)([O-])OC[C@H]3O[C@@H](n4cnc5c(N)ncnc54)C[C@@H]3O)O2)C=CC1`: where the note is “in O”, the emission maximum is given as 450 nm.
`CCN(CC)c1ccc2cc(C#N)c(=O)oc2c1` showed an emission maximum (in ClCCl) of 460 nm.
For `Fc1cc(F)c2cc3cccc[n+]3cc2c1`, the emission maximum (in O) is 420 nm.
On to `Cc1ccc(/C2=c3\cc/c(o3)=C(\c3ccc(C)cc3)c3ccc([nH]3)-c3ccc4n3[B-](F)(F)[N+]3=C(C=CC3=C4c3cccs3)c3ccc2[nH]3)cc1`, for which the emission maximum (in ClC(Cl)Cl) worked out at 722 nm.
For `COc1ccc(-c2nc(-c3ccccc3)c(N(c3ccccc3)c3ccccc3)s2)cc1`, the emission maximum (in ClC(Cl)Cl) turned out to be 457 nm.
